The results in this text go back to paper PMC9012159, “A comparative biodistribution study of polymeric and lipid-based nanoparticles” (Drug Delivery and Translational Research, 2022).

This series can be described thus: PEBCA pharmacokinetics and biodistribution study in rats (Cbz and metabolites by LC-MS/MS). The class given is in vivo, rat. As to conditions: for peak concentration ratio organ:blood, fold higher for Cbz than for IR780-oleyl: highest doses; for detection of possible Cbz metabolite in samples: all tissue and serum samples after PEBCA, LC-MS/MS. How it is done: Male Wistar rats were purchased at 8 weeks of age from Janvier Labs (France). They were housed in groups of four in individually ventilated cages in a specific pathogen-free environment at 22–23 °C and 50–60% relative humidity, on a 12-h light/dark cycle and with 70 air changes per hour and free access to food and sterile water. They were fed RM1 expanded pellets (Special Diets Services, Essex, UK), and the cages were enriched with housing, nesting material and gnaw sticks. All institutional and national guidelines for the care and use of laboratory animals were followed. Experiments were performed in Norway.
During all experiments, the animals were anaesthetized by inhalation of 2–3% isoflurane (Baxter, Deerfield, IL, USA). Anaesthesia was maintained with isoflurane in 0.4 L/min O2 and 0.6 L/min N2O.
To perform the pharmacokinetics and biodistribution study, the animals were separated into 2 groups according to dose: • Low dose PEBCA-Cbz, 0.5 mg/kg Cbz (4.4 mg/kg NPs) • High dose PEBCA-Cbz, 3.5 mg/kg Cbz (30.5 mg/kg NPs)
Details about the treatment groups are available in Table 1. Before injection, the particles were diluted in 0.9% saline to a concentration that corresponded to an injection volume of 2 mL/kg. In addition to the treated animals, 6 sham-treated (injected with 0.9% saline 2 mL/kg) animals were used. The sham-treated animals were euthanized at 2, 4 and 14 days, two at each time point. Animals were injected intravenously once.
Blood samples on time points 1–30 min and 4 h (Table 2) were performed on conscious animals, and all other blood samples were collected during exsanguination. The leg of the animal was shaved to expose the saphenous vein. Petrolatum was applied to the shaved area and the saphenous vein was punctured using a 19G needle. Into tubes containing blood clotting activator, 300–500 µL blood was collected (Microvette 500 Serum, Sarstedt AG & Co. KG, Germany). The tubes were turned 3–4 times, left for 60 min in upright position at room temperature to allow clot formation before centrifugation at 10 000 rcf for 5 min. The serum was immediately transferred to new tubes and stored at − 80 °C until LC–MS/MS analysis.
Cbz was quantified by LC–MS/MS, using the same instrumentation and chromatographic column as described for IR-780-oleyl quantification above. […] The flow rate was constant at 0.5 mL/min and the injection volume was 1 µL. […] Similarly, Cbz-d6 and docetaxel-d5 internal standards were monitored at m/z 864.4 → 583.2 and 835.5 → 554.3, respectively.
7-Methyl-docetaxel was purchased from SynZeal Research (Moraiya, India, catalogue number SZ-D031010), 10-methyl-docetaxel from Eos Med Chem (Jinan, China, custom synthesis), docetaxel from Sigma (Fluka, product number 01885) and 7-epi-docetaxel from Santa Cruz Biotechnology (Dallas, USA, product number SC-210610).
The Cbz-d6 and docetaxel-d5 internal standards were purchased from Toronto Research Chemicals (Toronto, Canada, catalogue numbers C046502 and D494423, respectively). A mix of the two internal standards was added to all standards and samples to yield a final concentration of 50 ng/mL.

In the case of `CO[C@H]1C(=O)[C@]2(C)[C@@H](OC)C[C@H]3OC[C@@]3(OC(C)=O)[C@H]2[C@H](OC(=O)c2ccccc2)[C@]2(O)C[C@H](OC(=O)[C@H](O)[C@@H](NC(=O)OC(C)(C)C)c3ccccc3)C(C)=C1C2(C)C` [Cbz, cabazitaxel], under “Cbz after PEBCA, in most cases, rat”, the “sampling point at which the organ:blood ratio reaches its peak” value is given as 24 h. The “dose response (concentration ratio normalized to injected dose)” value reads like this: (Cbz after PEBCA, majority of organs and time points, rat) over 1; (Cbz after PEBCA, serum, rat) under 1. Further, the “Lung Cmax” value (Cbz measured after PEBCA high dose, 3.5 mg/kg Cbz (30.5 mg/kg NPs) i.v., rat, n = 4) amounted to 7593 ng/g. For the setting “all organs, rat (abstract)”, the “measured concentration ratio all organs vs. blood, fold higher for cabazitaxel as compared to IR780-oleyl” value is reported as “more than 50 fold”. Also, the “peak concentration ratio organ:blood, fold higher for Cbz than for IR780-oleyl” value is “at least 100 fold” (all tissues except liver, rat) and “about 50 fold” (liver, rat). Besides, the “decrease in serum concentration of Cbz” value (within the first 4 h after PEBCA injection, rat serum) is about 100 fold.
For `CO[C@H]1C(=O)[C@@]2(C)[C@H]([C@H](OC(=O)c3ccccc3)[C@]3(O)C[C@H](OC(=O)[C@H](O)[C@@H](NC(=O)OC(C)(C)C)c4ccccc4)C(C)=C1C3(C)C)[C@]1(OC(C)=O)CO[C@@H]1C[C@@H]2O` [10-m-Doc, 10-methyl-docetaxel], for the setting “Cbz metabolites after PEBCA, even at high dose administered, rat, negligible”, the “metabolite concentration in brain” value is 0.2 ng/g. Besides, the “metabolite concentration in serum relative to Cbz in the same sample” value (after PEBCA, rat serum, found only up to the 15-min sampling point) was at most 0.5%.
For `CO[C@H]1C[C@H]2OC[C@@]2(OC(C)=O)[C@H]2[C@H](OC(=O)c3ccccc3)[C@]3(O)C[C@H](OC(=O)[C@H](O)[C@@H](NC(=O)OC(C)(C)C)c4ccccc4)C(C)=C([C@@H](O)C(=O)[C@]12C)C3(C)C` [7-methyl-docetaxel], for the setting “rat”, the “detection of possible Cbz metabolite in samples” value is recorded as “No 7-methyl-docetaxel was observed in any sample”.
Same read-out and setting: the result for `CC(=O)O[C@@]12CO[C@@H]1C[C@@H](O)[C@@]1(C)C(=O)[C@H](O)C3=C(C)[C@@H](OC(=O)[C@H](O)[C@@H](NC(=O)OC(C)(C)C)c4ccccc4)C[C@@](O)([C@@H](OC(=O)c4ccccc4)[C@H]21)C3(C)C` [7-epi-docetaxel] reads “no 7-epi-docetaxel”.
